Results from ChEMBL document CHEMBL4406836, “The design of a cell-selective fowlicidin-1-derived peptide with both antimicrobial and anti-inflammatory activities” (Eur J Med Chem, 2019).
In brackets after ≈: the same amount, converted by molar mass. Activity calls are given as the source filed them. No cut-off for these calls is given here.

Tests used:
[1] = tested on: Staphylococcus aureus; assay: Antibacterial activity against methicillin-resistant Staphylococcus aureus CCARM 3089 assessed as reduction in bacterial growth incubated for 18 hrs by spectrophotometry based microtiter broth dilution method; format: functional; conditions: CCARM 3089, 18 h
[2] = tested on: Staphylococcus aureus; assay: Antibacterial activity against methicillin-resistant Staphylococcus aureus CCARM 3090 assessed as reduction in bacterial growth incubated for 18 hrs by spectrophotometry based microtiter broth dilution method; format: functional; conditions: CCARM 3090, 18 h
[3] = tested on: Staphylococcus aureus; assay: Fractional inhibitory concentration index, sum of ratio of MIC of compound in presence of […] uM ciprofloxacin to MIC of ciprofloxacin and ratio of MIC of compound in presence of ciprofloxacin to MIC of ciprofloxacin for antibacterial activity against methicillin-resistant Staphylococcus aureus CCARM 3089; format: functional
[4] = tested on: Pseudomonas aeruginosa; assay: Fractional inhibitory concentration index, sum of ratio of MIC of compound in presence of […] uM chloramphenicol to MIC of chloramphenicol and ratio of MIC of compound in presence of chloramphenicol to MIC of compound for antibacterial activity against multidrug-resistant Pseudomonas aeruginosa CCARM 2095; format: functional
[5] = tested on: Staphylococcus aureus; assay: Fractional inhibitory concentration index, sum of ratio of MIC of compound in presence of […] uM oxacillin to MIC of oxacillin and ratio of MIC of compound in presence of oxacillin […] antibacterial activity against methicillin-resistant Staphylococcus aureus CCARM 3089; format: functional
[6] = tested on: Pseudomonas aeruginosa; assay: Fractional inhibitory concentration, ratio of MIC of compound in presence of ciprofloxacin to MIC of compound for antibacterial activity against multidrug-resistant Pseudomonas aeruginosa CCARM 2095; format: functional
[7] = tested on: Pseudomonas aeruginosa; assay: Antibacterial activity against multidrug-resistant Pseudomonas aeruginosa CCARM 2095 assessed as reduction in bacterial growth incubated for 72 hrs by spectrophotometry; format: functional; conditions: CCARM 2095, 72 h
[8] = tested on: Pseudomonas aeruginosa; format: functional; conditions: CCARM 2095, 72 h
[9] = tested on: Enterococcus faecium; assay: Antibacterial activity against vancomycin-resistant Enterococcus faecium ATCC 51559 assessed as reduction in bacterial growth incubated for 18 hrs by spectrophotometry based microtiter broth dilution method; format: functional; conditions: ATCC 51559, 18 h
[10] = tested on: Staphylococcus aureus; format: functional; conditions: CCARM 3089, 72 h
[11] = tested on: Staphylococcus aureus; assay: Potentiation of oxacillin-induced antibacterial activity against methicillin-resistant Staphylococcus aureus CCARM 3089 assessed as reduction in oxacillin MIC at 1/16th MIC incubated for 72 hrs by spectrophotometry; format: functional
[12] = tested on: Staphylococcus aureus; assay: Potentiation of chloramphenicol-induced antibacterial activity against methicillin-resistant Staphylococcus aureus CCARM 3089 assessed as reduction in chloramphenicol MIC at 1/16th MIC incubated for 72 hrs by spectrophotometry; format: functional
[13] = tested on: Pseudomonas aeruginosa; format: functional; conditions: CCARM 2095, 72 h; remark: listed apart in the source
[14] = tested on: Pseudomonas aeruginosa; assay: Potentiation of chloramphenicol-induced antibacterial activity against mutidrug-resistant Pseudomonas aeruginosa CCARM 2095 assessed as reduction in chloramphenicol MIC at 1/16th MIC incubated for 72 hrs by spectrophotometry; format: functional
[15] = tested on: Staphylococcus aureus; assay: Potentiation of ciprofloxacin-induced antibacterial activity against methicillin-resistant Staphylococcus aureus CCARM 3089 assessed as reduction in ciprofloxacin MIC at 1/16th MIC incubated for 72 hrs by spectrophotometry; format: functional
[16] = tested on: Staphylococcus aureus; assay: Induction of cytoplasmic membrane depolarization in Staphylococcus aureus at 2 times of MIC for a period of 600 sec by DiSC3-5-fluorescence based assay; format: functional, organism-based
[17] = tested on: Pseudomonas aeruginosa; assay: Fractional inhibitory concentration, ratio of MIC of compound in presence of […] uM oxacillin to MIC of oxacillin for antibacterial activity against multidrug-resistant Pseudomonas aeruginosa CCARM 2095; format: functional
[18] = tested on: Pseudomonas aeruginosa; assay: Fractional inhibitory concentration index, sum of ratio of MIC of compound in presence of […] and ratio of MIC of compound in presence of ciprofloxacin to MIC of compound for antibacterial activity against multidrug-resistant Pseudomonas aeruginosa CCARM 2095; format: functional
[19] = tested on: Pseudomonas aeruginosa; assay: Antibacterial activity against multidrug-resistant Pseudomonas aeruginosa CCARM 2095 assessed as reduction in bacterial growth incubated for 18 hrs by spectrophotometry based microtiter broth dilution method; format: functional; conditions: CCARM 2095, 18 h
[20] = tested on: Staphylococcus aureus; format: functional; conditions: CCARM 3089, 72 h; remark: listed apart in the source
[21] = tested on: Staphylococcus aureus; assay: Fractional inhibitory concentration, ratio of MIC of compound in presence of 128 uM chloramphenicol to MIC of chloramphenicol for antibacterial activity against methicillin-resistant Staphylococcus aureus CCARM 3089; format: functional
[22] = tested on: Pseudomonas aeruginosa; assay: Potentiation of oxacillin-induced antibacterial activity against mutidrug-resistant Pseudomonas aeruginosa CCARM 2095 assessed as reduction in oxacillin MIC at 1/16th MIC incubated for 72 hrs by spectrophotometry; format: functional
[23] = tested on: Pseudomonas aeruginosa; assay: Antibacterial activity against multidrug-resistant Pseudomonas aeruginosa CCARM 2109 assessed as reduction in bacterial growth incubated for 18 hrs by spectrophotometry based microtiter broth dilution method; format: functional; conditions: CCARM 2109, 18 h
[24] = tested on: Pseudomonas aeruginosa; assay: Fractional inhibitory concentration, ratio of MIC of compound in presence of […] uM ciprofloxacin to MIC of ciprofloxacin for antibacterial activity against multidrug-resistant Pseudomonas aeruginosa CCARM 2095; format: functional
[25] = tested on: Staphylococcus aureus; assay: Antibacterial activity against methicillin-resistant Staphylococcus aureus CCARM 3089 assessed as reduction in bacterial growth incubated for 72 hrs in presence of 128 uM chloramphenicol by spectrophotometry; format: functional; conditions: CCARM 3089, 72 h
[26] = tested on: Pseudomonas aeruginosa; assay: Fractional inhibitory concentration, ratio of MIC of compound in presence of oxacillin to MIC of compound for antibacterial activity against multidrug-resistant Pseudomonas aeruginosa CCARM 2095; format: functional
[27] = tested on: Staphylococcus aureus; assay: Antibacterial activity against methicillin-resistant Staphylococcus aureus CCARM 3089 assessed as reduction in bacterial growth incubated for 72 hrs by spectrophotometry; format: functional; conditions: CCARM 3089, 72 h
[28] = tested on: Pseudomonas aeruginosa; assay: Fractional inhibitory concentration index, sum of ratio of MIC of compound in presence of […] and ratio of MIC of compound in presence of oxacillin to MIC of compound for antibacterial activity against multidrug-resistant Pseudomonas aeruginosa CCARM 2095; format: functional
[29] = tested on: Staphylococcus aureus; assay: Fractional inhibitory concentration, ratio of MIC of compound in presence of […] uM ciprofloxacin to MIC of ciprofloxacin for antibacterial activity against methicillin-resistant Staphylococcus aureus CCARM 3089; format: functional
[30] = tested on: Staphylococcus aureus; assay: Fractional inhibitory concentration, ratio of MIC of compound in presence of ciprofloxacin to MIC of ciprofloxacin for antibacterial activity against methicillin-resistant Staphylococcus aureus CCARM 3089; format: functional
[31] = tested on: Staphylococcus aureus; assay: Fractional inhibitory concentration, ratio of MIC of compound in presence of […] uM oxacillin to MIC of oxacillin for antibacterial activity against methicillin-resistant Staphylococcus aureus CCARM 3089; format: functional
[32] = tested on: Staphylococcus aureus; assay: Fractional inhibitory concentration index, sum of ratio of MIC of compound in presence of 128 uM chloramphenicol to MIC of chloramphenicol and ratio of MIC of compound in presence of chloramphenicol to MIC of chloramphenicol for antibacterial activity against methicillin-resistant Staphylococcus aureus CCARM 3089; format: functional
[33] = tested on: Staphylococcus aureus; assay: Antibacterial activity against methicillin-resistant Staphylococcus aureus CCARM 3095 assessed as reduction in bacterial growth incubated for 18 hrs by spectrophotometry based microtiter broth dilution method; format: functional; conditions: CCARM 3095, 18 h

H-LVIRWVRAGYKLYRAIKKK-NH2
MIC [1]: 4 µM
MIC [2]: 2 µM
fractional inhibitory concentration index (FICI) [3]: 0.375
fractional inhibitory concentration index (FICI) [4]: 0.281
fractional inhibitory concentration index (FICI) [5]: 0.5
FIC [6]: 0.5
MIC [7]: 2 µM
MIC [8]: 32 µM
MIC [9]: 4 µM
MIC [10]: 128 µM
fold change (FC) [11]: 4 - 32
fold change (FC) [12]: 4 - 32
MIC [13]: 128 µM
fold change (FC) [14]: 4 - 16
fold change (FC) [15]: 4 - 32
Activity [16]: Active
FIC [17]: 0.25
fractional inhibitory concentration index (FICI) [18]: 0.625
MIC [19]: 2 µM
MIC [20]: 256 µM
FIC [21]: 0.125
fold change (FC) [22]: 4 - 16
MIC [23]: 4 µM
FIC [24]: 0.125
MIC [25]: 16 µM
FIC [26]: 0.25
MIC [27]: 4 µM
fractional inhibitory concentration index (FICI) [28]: 0.5
FIC [29]: 0.25
FIC [30]: 0.125
FIC [31]: 0.25
fractional inhibitory concentration index (FICI) [32]: 0.25
MIC [33]: 2 µM

CC[C@H](C)[C@H](NC(=O)[C@H](CCCCN)NC(=O)[C@H](CCC(=O)O)NC(=O)[C@H](CCCCN)NC(=O)[C@H](CO)NC(=O)[C@H](CCCCN)NC(=O)[C@H](CCCNC(=N)N)NC(=O)[C@H](Cc1ccccc1)NC(=O)[C@H](Cc1ccccc1)NC(=O)[C@H](CC(=O)O)NC(=O)CNC(=O)[C@H](CC(C)C)NC(=O)[C@@H](N)CC(C)C)C(=O)NCC(=O)N[C@@H](CCCCN)C(=O)N[C@@H](CCC(=O)O)C(=O)N[C@@H](Cc1ccccc1)C(=O)N[C@@H](CCCCN)C(=O)N[C@@H](CCCNC(=N)N)C(=O)N[C@H](C(=O)N[C@H](C(=O)N[C@@H](CCC(N)=O)C(=O)N[C@@H](CCCNC(=N)N)C(=O)N[C@H](C(=O)N[C@@H](CCCCN)C(=O)N[C@@H](CC(=O)O)C(=O)N[C@@H](Cc1ccccc1)C(=O)N[C@@H](CC(C)C)C(=O)N[C@@H](CCCNC(=N)N)C(=O)N[C@@H](CC(N)=O)C(=O)N[C@@H](CC(C)C)C(=O)N[C@H](C(=O)N1CCC[C@H]1C(=O)N[C@@H](CCCNC(=N)N)C(=O)N[C@H](C(=O)N[C@@H](CCC(=O)O)C(=O)N[C@@H](CO)C(=O)O)[C@@H](C)O)C(C)C)[C@@H](C)CC)C(C)C)[C@@H](C)CC [CATHELICIDIN]
MIC [1]: 8 µM (≈ 35.9 µg/mL)
MIC [2]: 4 µM (≈ 18 µg/mL)
fractional inhibitory concentration index (FICI) [3]: 1.25
fractional inhibitory concentration index (FICI) [4]: 0.75
fractional inhibitory concentration index (FICI) [5]: 0.75
FIC [6]: 0.5
MIC [7]: 4 µM (≈ 18 µg/mL)
MIC [8]: 256 µM (≈ 1150 µg/mL)
MIC [9]: 8 µM (≈ 35.9 µg/mL)
MIC [10]: 256 µM (≈ 1150 µg/mL)
fold change (FC) [11]: 2 - 16
fold change (FC) [12]: 2 - 16
MIC [13]: 512 µM (≈ 2300 µg/mL)
fold change (FC) [14]: 2 - 4
fold change (FC) [15]: 2 - 16
Activity [16]: Active
FIC [17]: 1
fractional inhibitory concentration index (FICI) [18]: 0.75
MIC [19]: 4 µM (≈ 18 µg/mL)
MIC [20]: 256 µM (≈ 1150 µg/mL)
FIC [21]: 0.5
fold change (FC) [22]: 2 - 4
MIC [23]: 8 µM (≈ 35.9 µg/mL)
FIC [24]: 0.25
MIC [25]: 64 µM
FIC [26]: 1
MIC [27]: 8 µM (≈ 35.9 µg/mL)
fractional inhibitory concentration index (FICI) [28]: 2
FIC [29]: 0.25
FIC [30]: 1
FIC [31]: 0.5
fractional inhibitory concentration index (FICI) [32]: 1
MIC [33]: 16 µM (≈ 71.9 µg/mL)
